One assay concerns Burkholderia strains. The assay can be described thus: Checkerboard synergy study (FIC/FBC index). It is filed as cell-based, Burkholderia cenocepacia. Particulars: in combination with P4075EC+EDTA.
Another assay concerns Stenotrophomonas strains. Description: Checkerboard synergy study (FIC/FBC index). It is filed as cell-based, Stenotrophomonas maltophilia. Particulars: in combination with P4075EC+EDTA.
The next assay has as its system Acinetobacter strains. The assay can be described thus: Checkerboard synergy study (FIC/FBC index). It is filed as cell-based, Acinetobacter baumannii. The note with it: in combination with P4075EC+EDTA.
For a further assay, the system named is Acinetobacter baumannii. Description: MIC and MBC determination (CLSI, alamar blue). Particulars: Acinetobacter.
In assay [1] the test system is Stenotrophomonas maltophilia. The assay can be described thus: MIC and MBC determination (CLSI, alamar blue), CF isolates. The note with it: Stenotrophomonas.
The subject of another assay is Burkholderia cenocepacia. Described as above.
Assay [2] concerns methicillin-resistant Staphylococcus aureus (MRSA) clinical isolates. The assay can be described thus: MIC and MBC susceptibility assays (CLSI). It is filed as cell-based. The note with it: for MIC50 (15): value at rank 15 of 29; for MIC50(26): value at rank 26 of 29.
Another assay has as its system Pseudomonas aeruginosa. The assay can be described thus: MIC and MBC determination (CLSI, alamar blue), CF isolates. Particulars: Pseudomonas.
The mark [3] stands for this setting: share of 10 Burkholderia strains with synergy.
Setting [4] is: share of 10 Stenotrophomonas strains with synergy.
Setting [5] is: share of 10 Acinetobacter strains with synergy.
Where [6] appears, read: MBC analysis table, silver nitrate column.

In brackets after ≈: the same amount, converted by molar mass.

For the compound `NC[C@H]1O[C@H](O[C@H]2[C@H](O)[C@@H](O[C@H]3O[C@H](CO)[C@@H](O)[C@H](N)[C@H]3O)[C@H](N)C[C@@H]2N)[C@H](N)C[C@@H]1O` [Tobra], the FBC was 0.48 in the assay on Burkholderia strains (isolate NB21); 0.99 with Burkholderia strains (isolate NB25); 0.92 in the assay on Burkholderia strains (isolate NB26); 0.07 in the assay on Burkholderia strains (isolate NB29); 0.54 in the assay on Burkholderia strains (isolate NB30); 1.50 in the assay on Stenotrophomonas strains (isolate NB45). The FBC with Acinetobacter strains (isolate NB31) worked out at 1.50; with Acinetobacter strains (isolate NB32), 1.79; in the assay on Acinetobacter strains (isolate NB33), 1.75; in the assay with Acinetobacter strains (isolate NB34) it was 0.24; with Acinetobacter strains (isolate NB35) it was 1.44; in the assay with Acinetobacter strains (isolate NB37), 1.72. For the same compound, the FBC worked out at 3.52 in the assay with Acinetobacter strains (isolate NB39) and 3.01 with Acinetobacter strains (isolate NB40). Moreover, the FIC in the assay on Burkholderia strains (isolate NB21) is listed as 0.27; in the assay on Burkholderia strains (isolate NB22), 0.35; in the assay on Burkholderia strains (isolate NB26), 0.12; with Burkholderia strains (isolate NB28b) it was 0.54; with Burkholderia strains (isolate NB29), 0.32; in the assay on Burkholderia strains (isolate NB30), 0.27. The FIC came to 0.14 with Stenotrophomonas strains (isolate NB42); 1.40 in the assay on Stenotrophomonas strains (isolate NB43); 1.5 with Stenotrophomonas strains (isolate NB44); 0.97 with Stenotrophomonas strains (isolate NB45); 0.98 in the assay with Acinetobacter strains (isolate NB31); 0.88 in the assay on Acinetobacter strains (isolate NB32). Moreover, the FIC with Acinetobacter strains (isolate NB33) is 1.27; in the assay on Acinetobacter strains (isolate NB34) it was 0.41; in the assay on Acinetobacter strains (isolate NB35), 1.21; in the assay on Acinetobacter strains (isolate NB36), 3.30; with Acinetobacter strains (isolate NB37), 0.75; in the assay with Acinetobacter strains (isolate NB38) it was 1.05. The FIC with Acinetobacter strains (isolate NB39) amounted to 3.30; with Acinetobacter strains (isolate NB40) it was 3.01. Besides, the “Synergy (FBC)” value is recorded as “yes” with Burkholderia strains (isolate NB21); “indifferent” in the assay on Burkholderia strains (isolate NB22); “indifferent” in the assay on Burkholderia strains (isolate NB23); “indifferent” in the assay with Burkholderia strains (isolate NB24); “indifferent” with Burkholderia strains (isolate NB25); “indifferent” in the assay with Burkholderia strains (isolate NB26). Besides, the “Synergy (FBC)” value in the assay on Burkholderia strains (isolate NB27) is given as “indifferent”; in the assay on Burkholderia strains (isolate NB28b) it was “indifferent”; with Burkholderia strains (isolate NB29) it was “yes”; in the assay on Burkholderia strains (isolate NB30) it was “yes”; in the assay with Stenotrophomonas strains (isolate NB42), “indifferent”; with Stenotrophomonas strains (isolate NB43), “indifferent”. The “Synergy (FBC)” value in the assay with Stenotrophomonas strains (isolate NB44) was “indifferent”; in the assay on Stenotrophomonas strains (isolate NB45), “indifferent”; in the assay on Acinetobacter strains (isolate NB31) it was “no”; in the assay with Acinetobacter strains (isolate NB32), “no”; in the assay on Acinetobacter strains (isolate NB33) it was “no”; in the assay with Acinetobacter strains (isolate NB34), “yes”. The “Synergy (FBC)” value with Acinetobacter strains (isolate NB35), with Acinetobacter strains (isolate NB36), with Acinetobacter strains (isolate NB37), in the assay with Acinetobacter strains (isolate NB38), in the assay with Acinetobacter strains (isolate NB39) and with Acinetobacter strains (isolate NB40) was “no” throughout. For the same compound, the “Synergy (FIC)” value is “yes” with Burkholderia strains (isolate NB21); “yes” in the assay with Burkholderia strains (isolate NB22); “indifferent” in the assay with Burkholderia strains (isolate NB23); “indifferent” in the assay on Burkholderia strains (isolate NB24); “indifferent” with Burkholderia strains (isolate NB25); “yes” in the assay with Burkholderia strains (isolate NB26). Further, the “Synergy (FIC)” value in the assay on Burkholderia strains (isolate NB27) was “indifferent”; with Burkholderia strains (isolate NB28b), “yes”; with Burkholderia strains (isolate NB29) it was “yes”; in the assay with Burkholderia strains (isolate NB30), “yes”; in the assay with Stenotrophomonas strains (isolate NB42) it was “yes”; in the assay on Stenotrophomonas strains (isolate NB43), “indifferent”. The “Synergy (FIC)” value with Stenotrophomonas strains (isolate NB44) was “indifferent”; in the assay with Stenotrophomonas strains (isolate NB45), “indifferent”; with Acinetobacter strains (isolate NB31), “indifferent”; in the assay on Acinetobacter strains (isolate NB32) it was “indifferent”; with Acinetobacter strains (isolate NB33), “indifferent”; in the assay with Acinetobacter strains (isolate NB34) it was “yes”. Besides, the “Synergy (FIC)” value with Acinetobacter strains (isolate NB35), with Acinetobacter strains (isolate NB36), with Acinetobacter strains (isolate NB37), in the assay on Acinetobacter strains (isolate NB38), in the assay with Acinetobacter strains (isolate NB39) and with Acinetobacter strains (isolate NB40) was “indifferent” each time. Also, the “% FBC Synergy” value in the assay with Burkholderia strains (setting [3]) is on record as 30%; with Stenotrophomonas strains (setting [4]), 0%; in the assay with Acinetobacter strains (setting [5]), 10%. The “% FIC Synergy” value came out at 50% in the assay with Burkholderia strains (setting [3]), 20% in the assay on Stenotrophomonas strains (setting [4]) and 10% in the assay on Acinetobacter strains (setting [5]).

Consider `CC(C)(O/N=C(\C(=O)N[C@@H]1C(=O)N2C(C(=O)[O-])=C(C[n+]3ccccc3)CS[C@H]12)c1csc(N)n1)C(=O)O` [Ceftazidime], for which the “MIC 50” value with Acinetobacter baumannii was over 32 µg/mL; in assay [1] it was over 32 µg/mL; in the assay on Burkholderia cenocepacia (Burkholderia cenocepacia), 8 µg/mL (≈ 14.6 µM). In addition, the “MIC 90” value is over 32 µg/mL in the assay with Acinetobacter baumannii, over 32 µg/mL in assay [1], 16 µg/mL (≈ 29.3 µM) in the assay on Burkholderia cenocepacia (Burkholderia) and 16 µg/mL (≈ 29.3 µM) in the assay with Burkholderia cenocepacia (Burkholderia cenocepacia).

In the case of `CCC[C@@H]1C[C@@H](C(=O)N[C@@H]([C@H]2O[C@H](SC)[C@H](O)[C@@H](O)[C@H]2O)[C@H](C)Cl)N(C)C1` [clind], the “MIC50 (15)” value in assay [2] (MRSA clinical isolates) was over 64 µg/mL.

For `Cc1onc(-c2ccccc2)c1C(=O)N[C@@H]1C(=O)N2[C@@H]1SC(C)(C)[C@@H]2C(=O)O` [Ox], in assay [2] (MRSA clinical isolates), the “MIC50 (15)” value was over 16 µg/mL.

Turning to `C[C@H]1c2cccc(O)c2C(O)=C2C(=O)[C@]3(O)C(O)=C(C(N)=O)C(=O)[C@@H](N(C)C)[C@@H]3[C@@H](O)[C@@H]21` [Dox], the “MIC50 (15)” value in assay [2] (MRSA clinical isolates) turned out to be 0.25 µg/mL (≈ 0.563 µM).

With `CO[C@@]1(NC(=O)Cc2cccs2)C(=O)N2C(C(=O)O)=C(COC(N)=O)CS[C@@H]21` [Cefoxitin], the “MIC 50” value (in the assay on Pseudomonas aeruginosa; with Acinetobacter baumannii; in assay [1]) was over 256 µg/mL in each case. The “MIC 90” value in the assay on Pseudomonas aeruginosa is over 256 µg/mL; in the assay on Acinetobacter baumannii it was over 256 µg/mL; in assay [1] it was over 256 µg/mL; in the assay with Burkholderia cenocepacia (Burkholderia), 256 µg/mL (≈ 599 µM).

`CC[C@H]1OC(=O)[C@H](C)[C@@H](O[C@H]2C[C@@](C)(OC)[C@@H](O)[C@H](C)O2)[C@H](C)[C@@H](O[C@@H]2O[C@H](C)C[C@H](N(C)C)[C@H]2O)[C@](C)(O)C[C@@H](C)C(=O)[C@H](C)[C@@H](O)[C@]1(C)O` [Eryth]: in assay [2] (MRSA clinical isolates), the “MIC50 (15)” value stood at 64 µg/mL (≈ 87.2 µM).

As for `C[C@H]1COc2c(N3CCN(C)CC3)c(F)cc3c(=O)c(C(=O)O)cn1c23` [Levofloxacin], the “MIC 50” value in the assay on Pseudomonas aeruginosa is 0.5 µg/mL (≈ 1.38 µM); in the assay on Acinetobacter baumannii, 16 µg/mL (≈ 44.3 µM); in assay [1] it was 2 µg/mL (≈ 5.53 µM); against Burkholderia cenocepacia (Burkholderia cenocepacia) it was 2 µg/mL (≈ 5.53 µM). The “MIC 90” value is 8 µg/mL (≈ 22.1 µM) against Pseudomonas aeruginosa; over 16 µg/mL in the assay on Acinetobacter baumannii; 8 µg/mL (≈ 22.1 µM) in assay [1]; 8 µg/mL (≈ 22.1 µM) with Burkholderia cenocepacia (Burkholderia); 8 µg/mL (≈ 22.1 µM) against Burkholderia cenocepacia (Burkholderia cenocepacia).

Turning to `O=[N+]([O-])[O-].[Ag+]` [silver nitrate], the “MIC50 (15)” value in assay [2] (setting [6]) amounted to 0.0025 µg/mL; in assay [2] (silver nitrate column), 0.00031 µg/mL. Moreover, the “MIC50(26)” value in assay [2] (setting [6]) is over 0.01 µg/mL; in assay [2] (silver nitrate column), 0.00063 µg/mL. Further, the MIC 90 in assay [2] (clinical isolates of MRSA) came out at 0.00063%.

Turning to `C[C@H]1COc2c(N3CCN(C)CC3)c(F)cc3c(=O)c(C(=O)O)cn1c23` [Levo], the “MIC50 (15)” value in assay [2] (MRSA clinical isolates) came to 8 µg/mL (≈ 22.1 µM).

Turning to `CN[C@H](CC(C)C)C(=O)N[C@H]1C(=O)N[C@@H](CC(N)=O)C(=O)N[C@H]2C(=O)N[C@H]3C(=O)N[C@H](C(=O)N[C@H](C(=O)O)c4cc(O)cc(O)c4-c4cc3ccc4O)[C@H](O)c3ccc(c(Cl)c3)Oc3cc2cc(c3O[C@@H]2O[C@H](CO)[C@@H](O)[C@H](O)[C@H]2O[C@H]2C[C@](C)(N)[C@H](O)[C@H](C)O2)Oc2ccc(cc2Cl)[C@H]1O` [vancomycin], in assay [2] (clinical isolates of MRSA), the “bactericidal activity (MBC90 compared to MIC90)” value was “bactericidal”.

With `CN[C@H](CC(C)C)C(=O)N[C@H]1C(=O)N[C@@H](CC(N)=O)C(=O)N[C@H]2C(=O)N[C@H]3C(=O)N[C@H](C(=O)N[C@H](C(=O)O)c4cc(O)cc(O)c4-c4cc3ccc4O)[C@H](O)c3ccc(c(Cl)c3)Oc3cc2cc(c3O[C@@H]2O[C@H](CO)[C@@H](O)[C@H](O)[C@H]2O[C@H]2C[C@](C)(N)[C@H](O)[C@H](C)O2)Oc2ccc(cc2Cl)[C@H]1O` [Vanco], in assay [2] (MRSA clinical isolates), the “MIC50 (15)” value was determined as 1 µg/mL (≈ 0.69 µM).

In assay [2] (clinical isolates of MRSA), `C[C@H]1c2cccc(O)c2C(O)=C2C(=O)[C@]3(O)C(O)=C(C(N)=O)C(=O)[C@@H](N(C)C)[C@@H]3[C@@H](O)[C@@H]21` [doxycyline, doxycycline] came in with an MIC 90 of 4 µg/mL (≈ 9 µM).

(Values after patent US20160158179A1, “NANOEMULSION THERAPEUTIC COMPOSITIONS AND METHODS OF USING THE SAME” (THE REGENTS OF THE UNIVERSITY OF MICHIGAN, priority 2008, published 2016).)
